The text below walks through data of patent US6693166B1, “Cdk5—specific inhibitory peptides” (Hong Kong University of Science and Technology, priority 1999, dated 2004).

The target in experiment [1] is T1, H6-Cdk5.GST-Nck5a complex (Homo sapiens, UniProt Q00535).
T1 construct: made in house; host or cells: Escherichia coli M15 (H6-Cdk5)
Description: Peptide/Cdk binding assay: GSH-bead co-precipitation and Western blot of Cdk5. Conditions: various amounts of peptide (5, 20, 50 μM; 1000-fold excess). Here is the method: Peptide/Cdk Binding Assay—H6-Cdk5 (about 3 μg) and 15 μg of GST-p25 were premixed in 300 μl of 1×phosphate-buffered saline with 0.5 mg/ml bovine serum albumin. Some 50-μl quantities of the mixture was taken out to mix with various concentrations of the αN peptide (from serial dilutions made from a 2.0 mM stock solution), and the total volume of the mixture was adjusted to 150 μl using Buffer R (1×phosphate-buffered saline containing 1 mM EDTA, 1 mM dithiothreitol, 0.6 mM phenylmethylsulfonyl fluoride, 1 μg/ml leupeptin, 1 μg/ml leupeptin, 1 μg/ml antipain, 5 mg/ml bovine serum albumin). The reaction mixture was incubated at 4° C for 15 h. GST-Nck5a-H6-Cdk5 complex was then precipitated by the addition of 40 μl of GSH-Sepharose beads pre-equilibrated with 1×phosphate-buffered saline (50%, v/v). The GSH-Sepharose beads were washed three times with 1×phosphate-buffered saline buffer, and subsequently resuspended in 20 μl of water and 20 μl of 2×protein sample treatment buffer. The co-precipitated H6-Cdk5 was detected by SDS-PAGE followed by Western blot using a monoclonal antibody against Cdk5.
To discriminate between these possibilities, we performed direct binding competition experiments. […] The amount of H6-Cdk5 in complex with GST-Nck5a was determined by Western blotting of the enzyme co-precipitated by GSH-agarose beads. […]
Background: In western blotting, separated proteins are transferred to a membrane and probed.

In experiment [2] the target is T2, GST-Cdk2-cyclin A-H6 complex (Homo sapiens, UniProt P24941).
T2 construct: made in house; host or cells: E. coli BL21(DE3) (cyclin A-H6); GST-Cdk2 not described
Description: Peptide/Cdk binding assay: GSH-bead co-precipitation and Western blot of cyclin A. Conditions: various amounts of peptide (0.5, 2, 10 μM; 1000-fold excess). Here is the method: The binding of the αN peptide to the GST-Cdk2-cyclin A-H6 complex was studied in a similar manner to that described above for H6-Cdk5. Briefly, 3 μg of GST-Cdk2 and 10 μg of cyclin A-H6 were reconstituted in Buffer R with various concentrations of the αN peptide at 4° C. for 15 h. GST-Cdk2 was then precipitated by the addition of 20 μl of GSH-Sepharose beads. After washing, the co-precipitated cyclin A-H6 was detected by SDS-PAGE followed by Western blot using a monoclonal antibody against cyclin A (Santa Cruz).
To discriminate between these possibilities, we performed direct binding competition experiments. Various concentrations of the peptides were added to a H6-Cdk5.GST-Nck5a mixture, and GST-Nck5a was then precipitated using GSH-agarose beads. The amount of H6-Cdk5 in complex with GST-Nck5a was determined by Western blotting of the enzyme co-precipitated by GSH-agarose beads. The amount of H6-Cdk5 and cyclin A-H6 used in the experiment described in FIG. 4, A and B, were chosen to ensure that their respective antibodies would be in excess.

The target in experiment [3] is T2, GST-Cdk2-cyclin A-H6 complex. Description: Peptide inhibition of Cdk2 kinase activity (histone H1 peptide, [γ-32P]ATP). The class given is biochemical. Conditions: for inhibition of Cdk2 kinase activity (in words): GST-Cdk2.cyclin A-H6, FIG. 3B. How it is done:
The C-terminal histidine-tagged human cyclin A (cyclin A-H6) was expressed and purified in essentially the same manner as described for H6-Cdk5. Briefly, the expression plasmid pET21d containing a cyclin A gene lacking the N-terminal 173 amino acids was transformed into BL21(DE3) E. coli cells. The host cells were cultured in LB medium containing 100 μg/ml ampicillin, and cyclin A expression was induced by adding isopropyl-1-thio-β-D-galactopyranoside to a final concentration of 0.1 mM. The induction of cyclin A expression was for 3 h at 30° C. The pelleted cells were resuspended in 50 mM Tris-HCI, pH 7.5, 300 mM NaCl, and 0.05% Triton X-100, and then lysed in the French press. The subsequent purification of cyclin A using a Ni^2+-NTA column was carried out in a manner identical to that described for the purification of H6-Cdk5. The monomeric, active form of cyclin A-H6 was further purified by passing the cyclin A-H6-containing eluent through a Sephacryl S-200 gel filtration column (Amersham Pharmacia Biotech).
(§1) Peptide Inhibition of Cdk5 and Cdk2 Kinase Activity—Cdk5 kinase activity was assayed essentially as described previously, except that for each Cdk5 kinase reaction 1 μg of GST-Cdk5 was reconstituted with 2 μg of GST-Nck5a, and 1 μg of GST-Cdk2 was mixed with 3 μg of cyclin A-H6 in Cdk2 assays. The reconstituted complexes were added, in duplicate, to an assay mixture containing 30 mM MOPS, pH 7.4, 10 mM MgCl2, 40 μM of the histone H1 peptide, 50 μM [γ-^32P]ATP, and various concentrations of various peptides at 30° C. for 30 min before measuring the Cdk5 and Cdk2 kinase activities.

Experiment [4] has as its target T3, GST-Cdk5.GST-Nck5a complex (Homo sapiens, UniProt Q00535).
T3 construct: made in house
Description: Steady state kinetic analysis of Cdk5 inhibition (double reciprocal and Dixon plots). The experiment is classed as biochemical. Here is the method:
as §1
Steady State Kinetic Experiments—All assay conditions were the same as in the inhibition assay described above, except that the reaction time was kept at 15 min so that the product formed was less than 5% of the total substrate concentration used. To determine suitable concentrations of the substrate and the inhibitor for the steady state kinetic experiments, the Km value of GST-Cdk5.GST-Nck5a complex and a concentration-dependent inhibition profile of the enzyme by the αN peptide were determined. Four different concentrations of the histone H1 peptide (7.5, 10, 15, and 30 μM) were used in the kinetic analysis of the enzyme inhibition. For each substrate concentration, four concentrations of the αN peptide (0, 10, 20, and 30 μM) were used in the inhibition assay.

Experiment [5] deals with T3, GST-Cdk5.GST-Nck5a complex. Description: Peptide inhibition of Cdk5 kinase activity (histone H1 peptide, [γ-32P]ATP). The experiment is classed as biochemical. Conditions: for inhibition of Cdk5 kinase activity (in words): GST-Cdk5.GST-Nck5a, FIG. 2 and 3A. How it is done:
as §1

Where [6] appears, read: listed as Nck5a-derived peptide.

Where a SMILES comes first, the peptide text is derived from it. Where no end group is shown, it is not given here.

T3 sequence (Q00535 whole entry): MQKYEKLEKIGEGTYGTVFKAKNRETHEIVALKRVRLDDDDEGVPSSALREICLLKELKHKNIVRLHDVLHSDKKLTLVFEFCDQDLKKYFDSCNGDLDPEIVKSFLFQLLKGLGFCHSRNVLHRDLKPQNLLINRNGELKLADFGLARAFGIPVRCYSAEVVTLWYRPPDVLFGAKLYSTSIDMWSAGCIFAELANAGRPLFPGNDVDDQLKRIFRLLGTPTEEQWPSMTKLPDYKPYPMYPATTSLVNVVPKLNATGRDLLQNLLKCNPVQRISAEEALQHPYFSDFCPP
T3 sequence (Q15078 99-307 partner limits assumed): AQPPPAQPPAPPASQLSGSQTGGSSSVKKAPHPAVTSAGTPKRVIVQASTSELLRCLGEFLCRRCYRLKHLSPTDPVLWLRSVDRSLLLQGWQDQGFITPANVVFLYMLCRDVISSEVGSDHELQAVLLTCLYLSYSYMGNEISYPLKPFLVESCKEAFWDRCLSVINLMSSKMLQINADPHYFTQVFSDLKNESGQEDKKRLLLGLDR
T1 sequence (Q00535 whole entry): as the sequence (Q00535 whole entry) above
T1 sequence (Q15078 99-307 partner limits assumed): as the sequence (Q15078 99-307 partner limits assumed) above

Consider `CC(C)C[C@H](NC(=O)[C@H](CS)NC(=O)[C@H](CCCNC(=N)N)NC(=O)[C@H](CC(C)C)NC(=O)[C@H](CC(C)C)NC(=O)[C@H](CCC(=O)O)NC(=O)[C@H](CO)NC(=O)[C@@H](NC(=O)[C@H](CO)NC(=O)[C@H](C)N)[C@@H](C)O)C(=O)NCC(=O)N[C@@H](CCC(=O)O)C(=O)N[C@@H](Cc1ccccc1)C(=O)N[C@@H](CC(C)C)C(=O)N[C@@H](CS)C(=O)N[C@@H](CCCNC(=N)N)C(=O)N[C@@H](CCCNC(=N)N)C(=O)N[C@@H](CS)C(=O)N[C@@H](Cc1ccc(O)cc1)C(=O)N[C@@H](CCCNC(=N)N)C(=O)N[C@@H](CC(C)C)C(=O)N[C@@H](CCCCN)C(=O)N[C@@H](Cc1c[nH]cn1)C(=O)N[C@@H](CC(C)C)C(=O)N[C@@H](CO)C(=O)N1CCC[C@H]1C(=O)N[C@H](C(=O)N[C@@H](CC(=O)O)C(=O)O)[C@@H](C)O` [αN peptide] (H-ASTSELLRCLGEFLCRRCYRLKHLSPTD-OH; N-terminus and C-terminus assumed), for which the results for the “dissociation of Nck5a from Cdk5 on addition of peptide” value in experiment [1] and in experiment [1] (setting [6]) were “did not lead to a dissociation of GST-Nck5a from H6-Cdk5” and “does not lead to the dissociation of Nck5a from Cdk5”, respectively. For the same compound, the “dissociation of cyclin A from Cdk2 on addition of peptide” value in experiment [2] is “formation of a ternary complex”; in experiment [2] (setting [6]) it was “does not lead to the dissociation of Nck5a from Cdk5 or cyclin A from Cdk2”. In addition, at 0.5 µM the inhibition in experiment [3] (0.5 μM peptide) was 10%. Also, in experiment [3] (2 μM peptide), 2 µM produced 50% inhibition. In addition, the inhibition (commonly the share of the control response that was lost under treatment) at 10 µM in experiment [3] (10 μM peptide) stood at 90%. Further, the “inhibition of Cdk2 kinase activity (in words)” value in experiment [3] is given as “even higher potency than in the case with Cdk5.Nck5a inhibition”. Also, the “inhibition of the kinase by an excess amount of peptide” value in experiment [4] (400 μM peptide, data not shown) is “near complete inhibition”. The “mode of inhibition with respect to the substrate (histone H1 peptide)” value in experiment [4] (double-reciprocal plot) is “noncompetitive inhibitor”. This compound displayed an inhibition at 5 µM in experiment [5] (5 μM peptide, heading: inhibition of Cdk5 activity) of 10%. Also, in experiment [5] (20 μM peptide), the inhibition at 20 µM was determined as 50%. Also, the inhibition at 50 µM in experiment [5] (50 μM peptide) amounted to 90%. For the same compound, the “inhibition of Cdk5 activity” value in experiment [5] (50 μM peptide) is listed as “about 90%”. For the same compound, the “effect of a large excess of GST-Nck5a on Cdk5 inhibition by the peptide” value in experiment [5] (50 μM peptide, 2, 20, 40 μg GST-p25 with 1 μg GST-Cdk5) is recorded as “no significant effect”.
Consider “DYHDIHTYLREMEVKPKPKVGYMKKQPDIT (DYHEDIHTYLREMEVKCKPKVGYMKKQPDIT; listed as Homo sapiens) [cyclin A peptide, 31-residue peptide corresponding to Asp177 to Thr207 of human cyclin A, the N-terminal alpha-helix, reference compound]”, for which, in experiment [3], the “inhibition of Cdk2 kinase activity (in words)” value is reported as “inhibited neither GST-Cdk5.GST-Nck5a nor GST-Cdk2.cyclin A-H6”. Further, the “inhibition of Cdk5 kinase activity (in words)” value in experiment [5] is on record as “inhibited neither GST-Cdk5.GST-Nck5a nor GST-Cdk2.cyclin A-H6”.
Take “GST-αN: GST fusion mutant containing a 29-residue peptide fragment corresponding to residues Gln145 to Asp173 of Nck5a (QASTSELLRCLGEFLCRRCYRLKHLSPTD; cysteine pairing not given here; also: fused to GST)”: in experiment [3], the “inhibition of Cdk2 kinase activity (in words)” value is listed as “also inhibited the kinase activity of Cdk2”. The “inhibition of Cdk5 kinase activity (in words)” value in experiment [5] was “inhibit Cdk5 kinase activity in a dose-dependent manner”. In addition, the “Cdk5 kinase activity inhibited” value in experiment [5] (GST-αN concentration of 5 μM) is given as “About 50%”.
